Experimental data published in patent publication US10729130B2, “Nematicidal compositions and methods of using them” (Eden Research plc, priority 2004, dated 2020).

What was measured:
Format in all cases: physicochemical
[1] = Terpene stability: yellow colored oxidation product (colour of encapsulated terpene pellet); parameters: key to Colour: W = white; Y = yellow; sl = slight; int = intermediate; key to Color: White, W; Yellow, Y; Very Yellow, VY; settings: for Color: Table 26, scored at 24 hours
Procedure: Loading reactions were set up as shown in Table 25 and left to incubate overnight. Samples were centrifuged at 14,000×g for 10 minutes and the appearance of free terpene floating on the aqueous layer and the color of the encapsulated terpenes in the pellet was scored. The highest volume of terpene absorbed by particles as evidenced by the absence of free terpene was recorded as the volume of absorbed terpene emulsion. The reactions were incubated for 1, 3, 6, 9 and 24 hours at room temperature or 37° C. After incubation samples were centrifuged at 14,000×g for 10 minutes and the appearance of free terpene floating on the aqueous layer was scored. The highest volume of terpene absorbed by the particles as evidenced by the absence of free terpene was recorded as the volume of absorbed terpene emulsion. Colour of the encapsulated pellet was scored at 24 hours. Increasing volumes of terpene emulsion were mixed with 250 mg/ml Baker's YP or 250 mg/ml SAF Mannan™ overnight at room temperature as shown in Tables 27 and 28. Samples were centrifuged at 14,000×g for 10 minutes and the appearance of free terpene floating on the aqueous layer was scored. The highest volume of terpene emulsion absorbed by Baker's YP or SAF Mannan™ as evidenced by the absence of free terpene was recorded as the volume of absorbed terpene emulsion. Colour of encapsulated terpenes in the pellet was recorded.

[2] = Kinetics of terpene loading into various particles at room temperature or 37° C.; parameters: key: +: “free terpene” refers to the visible presence of terpene in the centrifuged reaction mixture; −: The absence of free terpene indicates complete absorption of the terpene by the particles
Procedure: 1% Tween-80 solution was prepared by sonicating 1 ml 10% Tween-80 in 10 ml water. • Baker's YP was prepared by mixing 5 g of bakers YP in 20 ml 1% Tween-80. • Nutrex™ YGP suspension was prepared by mixing 2 g Nutrex™ YGP in 20 ml 1% Tween-80. • SAF Mannan™ suspension was prepared by mixing 2 g SAF Mannan™ in 20 ml 1% Tween-80.
The reactions were incubated for 1, 3, 6, 9 and 24 hours at room temperature or 37° C. After incubation samples were centrifuged at 14,000×g for 10 minutes and the appearance of free terpene floating on the aqueous layer was scored. The highest volume of terpene absorbed by the particles as evidenced by the absence of free terpene was recorded as the volume of absorbed terpene emulsion. Colour of the encapsulated pellet was scored at 24 hours.

[3] = Maximal citral and L-carvone loading in Baker's yeast particles (free terpene score); parameters: key to Free Terpene: +: “free terpene” refers to the visible presence of terpene in the centrifuged reaction mixture; −: The absence of free terpene indicates complete absorption of the terpene by the particles; settings: for Free Terpene: 500 μl 20 mg/ml YP, overnight room temperature
Procedure: Samples were centrifuged at 14,000×g for 10 minutes and the appearance of free terpene floating on the aqueous layer was scored. The expression “free terpene” refers to the visible presence of terpene in the centrifuged reaction mixture. The absence of free terpene indicates complete absorption of the terpene by the particles. The highest volume of terpene absorbed by the particles, as evidenced by the absence of free terpene, was recorded as the maximal volume of absorbed terpene emulsion.

[4] = Maximal terpene loading at high Baker's yeast particle levels (free terpene score); parameters: key to Free Terpene: +: “free terpene” refers to the visible presence of terpene in the centrifuged reaction mixture; −: The absence of free terpene indicates complete absorption of the terpene by the particles; settings: for Free Terpene: 500 μl 250 mg/ml YP
Procedure: Samples were centrifuged at 14,000×g for 10 minutes and the appearance of free terpene floating on the aqueous layer was scored. The expression “free terpene” refers to the visible presence of terpene in the centrifuged reaction mixture. The absence of free terpene indicates complete absorption of the terpene by the YP. The highest volume of terpene absorbed by the YP, as evidenced by the absence of free terpene, was recorded as the maximal volume of absorbed terpene emulsion.

- Colour ([1]; Table 25, Baker's 250 mg/ml, overnight): W
- Colour ([1]; Table 25, Levacan 217 mg/ml, overnight): W
- Colour ([1]; Table 25, Nutrex 163 mg/ml, overnight): W
- Colour ([1]; Table 25, Nutricepts 99 mg/ml, overnight): W
- Colour ([1]; Table 25, SAF Mannan 234 mg/ml, overnight): W
- Colour ([1]; Table 25, WGP 121 mg/ml, overnight): W
- Color ([1]; 37 ° C., Bakers 250 mg/ml): W
- Color ([1]; 37 ° C., Nutrex 100 mg/ml): W
- Color ([1]; 37 ° C., SAF 100 mg/ml): W
- Color ([1]; Rt, Bakers 250 mg/ml): W
- Color ([1]; Rt, Nutrex 100 mg/ml): W
- Color ([1]; Rt, SAF 100 mg/ml): W
- Colour ([1]; Table 27, Baker's YP, emulsion 7 μl as printed): W
- Colour ([1]; Table 27, Baker's YP, emulsion 15 μl): W
- Colour ([1]; Table 27, Baker's YP, emulsion 37.5 μl): W
- Colour ([1]; Table 27, Baker's YP, emulsion 112.5 μl): W
- Colour ([1]; Table 27, Baker's YP, emulsion 150 μl): W
- Colour ([1]; Table 27, Baker's YP, emulsion 225 μl): W
- Colour ([1]; Table 27, Baker's YP, emulsion 450 μl): W
- Colour ([1]; colour of encapsulated terpene in pellet, SAF Mannan 500 μl, terpene emulsion vol 15): W
- Colour ([1]; colour of encapsulated terpene in pellet, SAF Mannan 500 μl, terpene emulsion vol 37.5): W
- Colour ([1]; colour of encapsulated terpene in pellet, SAF Mannan 500 μl, terpene emulsion vol 75): W
- Colour ([1]; colour of encapsulated terpene in pellet, SAF Mannan 500 μl, terpene emulsion vol 112.5): W
- Colour ([1]; colour of encapsulated terpene in pellet, SAF Mannan 500 μl, terpene emulsion vol 150): W
- Colour ([1]; colour of encapsulated terpene in pellet, SAF Mannan 500 μl, terpene emulsion vol 225): W
- Colour ([1]; colour of encapsulated terpene in pellet, SAF Mannan 500 μl, terpene emulsion vol 450): W
- Free Terpene (hr) ([2]; 37 ° C., Bakers 250 mg/ml, emulsion 788 μl L-carvone or 525 μl Citral, 1 hr): +
- Free Terpene (hr) ([2]; 37 ° C., Bakers 250 mg/ml, emulsion 788 μl L-carvone or 525 μl Citral, 3 hr): −
- Free Terpene (hr) ([2]; 37 ° C., Bakers 250 mg/ml, emulsion 788 μl L-carvone or 525 μl Citral, 6 hr): −
- Free Terpene (hr) ([2]; 37 ° C., Bakers 250 mg/ml, emulsion 788 μl L-carvone or 525 μl Citral, 9 hr): −
- Free Terpene (hr) ([2]; 37 ° C., Bakers 250 mg/ml, emulsion 788 μl L-carvone or 525 μl Citral, 24 hr): −
- Free Terpene (hr) ([2]; 37 ° C., Nutrex 100 mg/ml, emulsion 1050 μl L-carvone or 788 μl Citral, 1 hr): +
- Free Terpene (hr) ([2]; 37 ° C., Nutrex 100 mg/ml, emulsion 1050 μl L-carvone or 788 μl Citral, 3 hr): −
- Free Terpene (hr) ([2]; 37 ° C., Nutrex 100 mg/ml, emulsion 1050 μl L-carvone or 788 μl Citral, 6 hr): −
- Free Terpene (hr) ([2]; 37 ° C., Nutrex 100 mg/ml, emulsion 1050 μl L-carvone or 788 μl Citral, 9 hr): −
- Free Terpene (hr) ([2]; 37 ° C., Nutrex 100 mg/ml, emulsion 1050 μl L-carvone or 788 μl Citral, 24 hr): −
- Free Terpene (hr) ([2]; 37 ° C., SAF 100 mg/ml, emulsion 1050 μl L-carvone or 788 μl Citral, 1 hr): <+
- Free Terpene (hr) ([2]; 37 ° C., SAF 100 mg/ml, emulsion 1050 μl L-carvone or 788 μl Citral, 3 hr): −
- Free Terpene (hr) ([2]; 37 ° C., SAF 100 mg/ml, emulsion 1050 μl L-carvone or 788 μl Citral, 6 hr): −
- Free Terpene (hr) ([2]; 37 ° C., SAF 100 mg/ml, emulsion 1050 μl L-carvone or 788 μl Citral, 9 hr): −
- Free Terpene (hr) ([2]; 37 ° C., SAF 100 mg/ml, emulsion 1050 μl L-carvone or 788 μl Citral, 24 hr): −
- Free Terpene (hr) ([2]; Rt, Bakers 250 mg/ml, emulsion 788 μl L-carvone or 525 μl Citral, 1 hr): +
- Free Terpene (hr) ([2]; Rt, Bakers 250 mg/ml, emulsion 788 μl L-carvone or 525 μl Citral, 3 hr): −
- Free Terpene (hr) ([2]; Rt, Bakers 250 mg/ml, emulsion 788 μl L-carvone or 525 μl Citral, 6 hr): −
- Free Terpene (hr) ([2]; Rt, Bakers 250 mg/ml, emulsion 788 μl L-carvone or 525 μl Citral, 9 hr): −
- Free Terpene (hr) ([2]; Rt, Bakers 250 mg/ml, emulsion 788 μl L-carvone or 525 μl Citral, 24 hr): −
- Free Terpene (hr) ([2]; Rt, Nutrex 100 mg/ml, emulsion 1050 μl L-carvone or 788 μl Citral, 1 hr): +
- Free Terpene (hr) ([2]; Rt, Nutrex 100 mg/ml, emulsion 1050 μl L-carvone or 788 μl Citral, 3 hr): −
- Free Terpene (hr) ([2]; Rt, Nutrex 100 mg/ml, emulsion 1050 μl L-carvone or 788 μl Citral, 6 hr): −
- Free Terpene (hr) ([2]; Rt, Nutrex 100 mg/ml, emulsion 1050 μl L-carvone or 788 μl Citral, 9 hr): −
- Free Terpene (hr) ([2]; Rt, Nutrex 100 mg/ml, emulsion 1050 μl L-carvone or 788 μl Citral, 24 hr): −
- Free Terpene (hr) ([2]; Rt, SAF 100 mg/ml, emulsion 1050 μl L-carvone or 788 μl Citral, 1 hr): <+
- Free Terpene (hr) ([2]; Rt, SAF 100 mg/ml, emulsion 1050 μl L-carvone or 788 μl Citral, 3 hr): −
- Free Terpene (hr) ([2]; Rt, SAF 100 mg/ml, emulsion 1050 μl L-carvone or 788 μl Citral, 6 hr): −
- Free Terpene (hr) ([2]; Rt, SAF 100 mg/ml, emulsion 1050 μl L-carvone or 788 μl Citral, 9 hr): −
- Free Terpene (hr) ([2]; Rt, SAF 100 mg/ml, emulsion 1050 μl L-carvone or 788 μl Citral, 24 hr): −
- terpene emulsion absorbed and encapsulated per 10 mg of YP ([3]; Baker's YP 20 mg/ml): at least 16.5 μl
- Free Terpene ([3]; emulsion 0.5 μl, 10% Tween-80 500 μl): −
- Free Terpene ([3]; emulsion 1.65 μl, 10% Tween-80 500 μl): −
- Free Terpene ([3]; emulsion 5 μl, 10% Tween-80 495 μl): −
- Free Terpene ([3]; emulsion 16.5 μl, 10% Tween-80 483.5 μl): −
- Free Terpene ([3]; emulsion 50 μl, 10% Tween-80 450 μl): +
- Free Terpene ([3]; emulsion 165 μl, 10% Tween-80 335 μl): +
- Free Terpene ([3]; emulsion 500 μl, no Tween-80): +
- terpene emulsion absorbed and encapsulated per 125 mg of YP ([4]; Baker's YP 250 mg/ml): at least 112.5 μl
- Free Terpene ([4]; emulsion 15 μl, 1% Tween-80 485 μl): −
- Free Terpene ([4]; emulsion 37.5 μl, 1% Tween-80 462.5 μl): −
- Free Terpene ([4]; emulsion 75 μl, 1% Tween-80 425 μl): −
- Free Terpene ([4]; emulsion 112.5 μl, 1% Tween-80 387.5 μl): −
- Free Terpene ([4]; emulsion 150 μl, 1% Tween-80 350 μl): Sl+
- Free Terpene ([4]; emulsion 225 μl, 1% Tween-80 275 μl): +
- Free Terpene ([4]; emulsion 450 μl, 1% Tween-80 50 μl): +
Substance: L-carvone
